In patent US20230257351A1, “SUBSTITUTED N-[…] HAVING P2X4 RECEPTOR ANTAGONISTIC ACTIVITY” (Bayer Aktiengesellschaft, priority 2020, published 2023):

Assays:
human P2X4 = molecular target: T1, human P2X4 (Homo sapiens, UniProt Q99571); assay: Human P2X4 HEK Cell FLIPR Assay; type: cell-based; settings: HEK293 stably expressing human P2X4, agonist Bz-ATP 3 μM (EC80); for IC50: read-out: Human P2X4 HEK Cells (FLIPR Assay) avg IC50
T1 construct: expressed in transfected cells
T1 sequence (Q99571 1-388): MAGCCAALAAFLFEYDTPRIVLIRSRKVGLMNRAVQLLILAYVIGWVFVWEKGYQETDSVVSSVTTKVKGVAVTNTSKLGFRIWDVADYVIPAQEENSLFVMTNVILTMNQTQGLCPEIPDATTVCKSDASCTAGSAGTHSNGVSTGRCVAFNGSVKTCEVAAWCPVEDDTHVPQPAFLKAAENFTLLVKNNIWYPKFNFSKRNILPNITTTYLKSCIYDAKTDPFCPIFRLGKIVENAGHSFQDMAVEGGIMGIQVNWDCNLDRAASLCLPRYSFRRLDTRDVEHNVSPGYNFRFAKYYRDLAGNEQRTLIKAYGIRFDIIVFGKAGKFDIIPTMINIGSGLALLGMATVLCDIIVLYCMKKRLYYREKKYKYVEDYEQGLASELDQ
How it was run: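 HEK293 cells stably expressing human P2X4 were loaded with Fluo8-AM (30 min, 37 °C, HBSS/HEPES pH 7.4 with probenecid), then preincubated 30 min at room temperature with compound, 25 μM–1 nM final, 0.5% DMSO. Bz-ATP-evoked calcium fluorescence was read on FLIPR; data were normalized to agonist control and given a four-parameter fit for IC50.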

rat P2X4 = molecular target: T2, rat P2X4 (Rattus norvegicus, UniProt P51577); assay: FLIPR Method for Rat P2X4 1321N1 Astrocytoma Cells; type: cell-based; settings: 1321N1 stably expressing rat P2X4; agonist MgATP 5 μM (EC80)
T2 construct: expressed in transfected cells
T2 sequence (P51577 1-388): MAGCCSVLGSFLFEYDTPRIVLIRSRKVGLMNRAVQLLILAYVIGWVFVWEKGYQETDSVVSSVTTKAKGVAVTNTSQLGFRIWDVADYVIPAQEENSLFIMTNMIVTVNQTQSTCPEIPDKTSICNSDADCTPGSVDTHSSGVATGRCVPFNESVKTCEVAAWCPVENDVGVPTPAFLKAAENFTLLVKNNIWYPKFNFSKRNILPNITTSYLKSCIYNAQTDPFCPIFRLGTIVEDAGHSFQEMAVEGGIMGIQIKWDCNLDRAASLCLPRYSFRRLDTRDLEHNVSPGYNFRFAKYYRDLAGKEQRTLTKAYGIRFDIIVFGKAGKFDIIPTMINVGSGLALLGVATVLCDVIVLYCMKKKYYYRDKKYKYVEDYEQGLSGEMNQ
Method: Compounds were tested on a 1321N1 cell line stably expressing rat P2X4. Cells were cultured on collagen-I-coated 384-well plates at a density of 10,000 cells/well and incubated overnight at 37° C., 5% CO2. P2X4 function was assessed by measuring intracellular calcium fluxes caused by Magnesium-ATP (MgATP) using the calcium-chelating dye Fluo8-AM (Molecular Devices) with the Fluorescent Imaging Plate Reader Tetra (FLIPR^Tetra; Molecular Devices CA). On the day of the assay, the medium was removed and the cells were incubated for 30 minutes at 37° C. and 5% CO2 in 30 μl of dye buffer (Hank's balanced salt solution, 10 mM HEPES, 1.8 mM CaCl2, 1 mM MgCl2, 2 mM probenecid, 5 mM D-glucose monohydrate, 5 μM Fluo8-AM, pH=7.4).
Compounds diluted in probenecid buffer (Hank's balanced salt solution, 10 mM HEPES, 1.8 mM CaCl2, 1 mM MgCl2, 2 mM probenecid, 5 mM D-glucose monohydrate, pH=7.4) at ten concentrations ranging from 25 μM to 1 nM (final concentration) were dispensed and incubated for 30 minutes at room temperature. The agonist, MgATP (Sigma-Aldrich Chemie GmbH, DE), was added at a final concentration of 5 μM, representing the EC80 routinely determined. The final assay volume was 50 μl and final DMSO concentration was 0.5%.
The fluorescence intensity reflecting intracellular calcium changes was recorded before and after MgATP addition, at an excitation and emission wavelengths of 470-495 nm and 515-575 nm respectively.
The compounds were tested in triplicates and fluorescence intensity raw data normalized to the agonist control and fitted to the four-parameter logistic equation:
Y=Bottom+(Top−Bottom)/(1+10^((Log IC50−X)*HillSlope))
Assay plate acceptance was based on the signal window (S/B)[…] and the reference compound pIC50 within ±[…] the mean of historic pIC50 of the compound. Failure to meet two of the three criteria determined exclusion of the plate's results. In Table 10 below the results for the assays are reported

Row | SMILES | Human P2X4 HEK Cells (FLIPR Assay) avg Efficacy (human P2X4) | IC50 (human P2X4) | IC50 (rat P2X4) | Rat P2X4 1321N1 Astrocytoma Cells (FLIPR Assay) avg Efficacy (rat P2X4)
1 | CC(=O)N(c1cccc(C#N)c1)c1cc(NC(=O)Cc2ccccc2Cl)ccn1 [Example 13, N-{4-[2-(2-chlorophenyl)acetamido]pyridin-2-yl}-N-(3-cyanophenyl)acetamide] | 96% | 289 nM | 790 nM | 93%
2 | CC(=O)N(c1ccc(Cl)c(F)c1)c1cc(NC(=O)Cc2ccc(F)cc2Cl)ccn1 [Example 59, N-(4-chloro-3-fluorophenyl)-N-{4-[2-(2-chloro-4-fluorophenyl)acetamido]pyridin-2-yl}acetamide] | 97% | 532 nM | 240 nM | 81%
3 | CC(=O)N(c1ccc(F)c(F)c1)c1cc(NC(=O)Cc2ccc([N+](=O)[O-])cc2Cl)ccn1 [Example 69, N-{4-[2-(2-chloro-4-nitrophenyl)acetamido]pyridin-2-yl}-N-(3,4-difluorophenyl)acetamide] | 94% | 816 nM | 228 nM | 100%
4 | CC(=O)N(c1ccccc1)c1cc(NC(=O)Cc2c(Cl)cccc2Cl)ccn1 [Example 27, N-{4-[2-(2,6-dichlorophenyl)acetamido]pyridin-2-yl}-N-phenylacetamide] | 97% | 242 nM | 652 nM | 99%
5 | CC(=O)N(c1ccccc1)c1cc(NC(=O)Cc2ccc(F)cc2Cl)ccn1 [Example 26, N-{4-[2-(2-chloro-4-fluorophenyl)acetamido]pyridin-2-yl}-N-phenylacetamide] | 102% | 660 nM | 649 nM | 101%
6 | CC(=O)N(c1ccc(F)c(F)c1)c1cc(NC(=O)Cc2ccccc2Cl)ccn1 [Example 1, N-{4-[2-(2-chlorophenyl)acetamido]pyridin-2-yl}-N-(3,4-difluorophenyl)acetamide] | 89% | 224 nM | 96.7 nM | 82%
7 | CC(=O)N(c1ccc(F)cc1)c1cc(NC(=O)Cc2cccc(F)c2C(F)(F)F)ccn1 [Example 32, N-(4-fluorophenyl)-N-(4-{2-[3-fluoro-2-(trifluoromethyl)phenyl]acetamido}pyridin-2-yl)acetamide] | 101% | 355 nM | 801 nM | 100%
8 | CC(=O)N(c1ccc(F)c(F)c1)c1cc(NC(=O)Cc2cccc(F)c2Cl)cnn1 [Example 201, N-{5-[2-(2-chloro-3-fluorophenyl)acetamido]pyridazin-3-yl}-N-(3,4-difluorophenyl)acetamide] | 89% | 510 nM |  | 
9 | COc1cc(F)cc(N(C(C)=O)c2cc(NC(=O)Cc3c(Cl)cccc3Cl)ccn2)c1 [Example 162, N-{4-[2-(2,6-Dichlorphenyl)acetamido]pyridin-2-yl}-N-(3-fluor-5-methoxyphenyl)acetamide] | 104% | 577 nM |  | 
10 | CC(=O)N(c1ccc(S(C)(=O)=O)c(Cl)c1)c1cc(NC(=O)Cc2ccc(F)cc2Cl)ccn1 [Example 159, N-{4-[2-(2-Chlor-4-fluorphenyl)acetamido]pyridin-2-yl}-N-[3-chlor-4-(methylsulfonyl)phenyl]acetamide] | 99% | 949 nM |  | 
11 | CC(=O)N(c1ccc(C#N)c(C(F)(F)F)c1)c1cc(NC(=O)Cc2c(Cl)cccc2Cl)ccn1 [Example 12, N-[4-cyano-3-(trifluoromethyl)phenyl]-N-{4-[2-(2,6-dichlorophenyl)acetamido]pyridin-2-yl}acetamide] | 101% |  |  | 
12 | CC(=O)N(c1cccc(F)c1)c1cc(NC(=O)Cc2ccccc2Cl)cnn1 [Example 196, N-{5-[2-(2-chlorophenyl)acetamido]pyridazin-3-yl}-N-(3-fluorophenyl)acetamide] | 94% | 546 nM |  | 
13 | CC(=O)N(c1cc(F)cc(Cl)c1)c1cc(NC(=O)Cc2ccccc2Cl)ccn1 [Example 136, N-(3-chloro-5-fluorophenyl)-N-{4-[2-(2-chlorophenyl)acetamido]pyridin-2-yl}acetamide] | 94% | 310 nM |  | 
14 | CC(=O)N(c1cccc(Cl)c1)c1cc(NC(=O)Cc2c(Cl)cccc2Cl)ccn1 [Example 134, N-(3-chlorophenyl)-N-{4-[2-(2,6-dichlorophenyl)acetamido]pyridin-2-yl}acetamide] | 99% | 504 nM |  | 
15 | CC(=O)N(c1ccc(S(C)(=O)=O)c(Cl)c1)c1cc(NC(=O)Cc2c(Cl)cccc2Cl)ccn1 [Example 155, N-[3-Chlor-4-(methylsulfonyl)phenyl]-N-{4-[2-(2,6-dichlorphenyl)acetamido]pyridin-2-yl)acetamide] | 100% | 339 nM |  | 
16 | CC(=O)N(c1cc(C)cc(C#N)c1)c1cc(NC(=O)Cc2ccc(F)cc2Cl)ccn1 [Example 178, N-{4-[2-(2-Chlor-4-fluorphenyl)acetamido]pyridin-2-yl}-N-(3-cyan-5-methylphenyl)acetamide] | 99% | 621 nM |  | 
17 | CC(=O)N(c1ccccc1)c1cc(NC(=O)Cc2ccc(F)cc2Cl)cnn1 [Example 188, N-{5-[2-(2-chloro-4-fluorophenyl)acetamido]pyridazin-3-yl}-N-phenylacetamide] | 98% | 829 nM |  | 
18 | CC(=O)N(c1cc(F)cc(Cl)c1)c1cc(NC(=O)Cc2c(F)cccc2Cl)ccn1 [Example 140, N-(3-chloro-5-fluorophenyl)-N-{4-[2-(2-chloro-6-fluorophenyl)acetamido]pyridin-2-yl)acetamide] | 105% | 271 nM |  | 
19 | CC(=O)N(c1ccc(F)c(F)c1)c1cc(NC(=O)Cc2ccc(F)cc2Cl)cnn1 [Example 202, N-{5-[2-(2-chloro-4-fluorophenyl)acetamido]pyridazin-3-yl}-N-(3,4-difluorophenyl)acetamide] | 94% | 557 nM |  | 
20 | CC(=O)N(c1cccc(C(F)(F)F)c1)c1cc(NC(=O)Cc2ccccc2Cl)ccn1 [Example 6, N-{4-[2-(2-chlorophenyl)acetamido]pyridin-2-yl}-N-[3-(trifluoromethyl)phenyl]acetamide] | 97% | 689 nM |  | 
21 | CC(=O)N(c1ccc(C)c(Cl)c1)c1cc(NC(=O)Cc2cccc(F)c2Cl)ccn1 [Example 181, N-{4-[2-(2-Chlor-3-fluorphenyl)acetamido]pyridin-2-yl}-N-(3-chlor-4-methylphenyl)acetamide] | 101% | 574 nM |  | 
